Results from US20070048738A1, “Methods and compositions for diagnosis, staging and prognosis of prostate cancer” (Mayo Foundation for Medical Education and Research, priority 2003, published 2007).

Key:
ZNF185 = ZNF185 mRNA expression in prostate cancer cell lines after 5-Aza-CdR treatment (Taqman real-time PCR); format: cell-based, human; details: LAPC4, LNCaP and PC3 prostate cancer cell lines; 6 μM 5-Aza-CdR for 6 days; versus untreated cells
[1] = tested on: ZNF185 5′ CpG dinucleotides of genomic DNA; assay: Methylation specific PCR (MSP) of ZNF185 DNA in prostate cell lines with or without 5-Aza-CdR; format: cell-based, human; details: prostate cancer cell lines with 5-Aza-CdR treatment versus without
Experimental: DNA isolation and Bisulfite modification. Genomic DNA was obtained from metastatic, primary, matched benign prostatic tissues and the above mentioned prostate cancer cell lines treated with 5-Aza-CdR, using Wizard® genomic DNA purification kit according to the manufacturer's protocol (Promega, Madison, Wis.). Genomic DNA (100 ng) was modified by sodium bisulfite treatment by converting unmethylated, but not methylated, cytosines to uracil as described previously (Herman et al., Proc. Natl. Acad. Sci. USA 93:9821-9826, 1996). DNA samples were then purified using the spin columns (Qiagen), and eluted in 50 μl of distilled water. Modification was completed by treatment with NaOH (0.3 M final concentration) for 5 min at room temperature, followed by ethanol precipitation. […]
Methylation Specific PCR (MSP). DNA methylation patterns within the gene were determined by chemical modification of unmethylated cytosine to uracil and subsequent PCR as described previously (Esteller et al., Cancer Res. 61:3225-3229, 2001), using primers specific for either methylated or the modified unmethylated sequences.
Two sets of primers were designed corresponding to the genomic positions around 210 and 335. […] One (1) μl of the PCR product was directly loaded onto DNA 500 lab chip and analyzed on Agilent 2100 Bioanalyzer (Agilent Technologies, Palo Alto, Calif.).

SVIL = SVIL mRNA expression in prostate cancer cell lines after 5-Aza-CdR treatment (TaqMan real-time PCR); details: 6 μM 5-Aza-CdR for 6 days
TU3A = TU3A mRNA expression in prostate cancer cell lines after 5-Aza-CdR treatment (TaqMan real-time PCR); details: 6 μM 5-Aza-CdR for 6 days
PRIMA1 = PRIMA1 mRNA expression in prostate cancer cell lines after 5-Aza-CdR treatment (TaqMan real-time PCR); details: 6 μM 5-Aza-CdR for 6 days
FLJ14084 = FLJ14084 mRNA expression in prostate cancer cell lines after 5-Aza-CdR treatment (TaqMan real-time PCR); details: all three prostate cancer cells (LAPC4, LNCaP, PC3); 6 μM 5-Aza-CdR for 6 days
KIAA1210 = KIAA1210 mRNA expression in prostate cancer cell lines after 5-Aza-CdR treatment (TaqMan real-time PCR); details: LAPC4 and LNCaP cells; 6 μM 5-Aza-CdR for 6 days

Structure (SMILES): Nc1ncn([C@H]2C[C@H](O)[C@@H](CO)O2)c(=O)n1 [5-Aza-CdR, 5-aza-2′-deoxycytidine]
- increase in mRNA levels of ZNF185 (ZNF185): ~2.0 fold
- methylated and unmethylated ZNF185 bands by MSP [1]: reduction of the methylated band and increase of the unmethylated band
- expression of SVIL mRNA levels (SVIL; LACaP cells (so in the source)): not in LACaP
- expression of SVIL mRNA levels (SVIL; LAPC4 and PC3 cells): significant increase
- TU3A expression levels (TU3A; LAPC4 and PC3 cells): not in LAPC4 and PC3 cells
- TU3A expression levels (TU3A; LNCaP cells): significantly increased
- expression of PRIMA1 mRNA levels (PRIMA1; LACaP cells (so in the source)): not in LACaP
- expression of PRIMA1 mRNA levels (PRIMA1; LAPC4 and PC3 cells): significant increase
- expression of FLJ14084 mRNA levels (FLJ14084): significant increase
- KIAA1210 mRNA levels (KIAA1210): increased
